Measured values as given in US10047051B2, “Substituted pyridines and method of use” (AbbVie S.á{acute over (.)}r.l., priority 2015, dated 2018).
pEC50: −log10 of the molar value.

Assays:
CFTR ΔF508 mutant = molecular target: T1, CFTR ΔF508 mutant (Homo sapiens, UniProt P13569, DEL508-508); experiment: YFP-halide influx assay for the CFTR-ΔF508 mutation (CFBE41o- cells); type: cell-based; details: forskolin 10.67 μM; for pEC50: from (1−F/F0) vs concentration plot
T1 construct: expressed in transfected cells; host or cells: CFBE41o- cells, adenoviral transduction
Text: The YFP halide influx assay measured the functionality of the cystic fibrosis Transmembrane Conductance regulator (CFTR) channels in the cystic fibrosis bronchial epithelium cell line CFBE41o-. The assay was used to evaluate the capacity of compounds to increase the open probability of existing CFTR channels in the membrane. It makes use of the observation that the yellow fluorescent protein (YFP) variant YFP H148Q, I152L, F47L has its fluorescence substantially quenched by halide ions like Cl^− and I^− (Galietta, L. J. V., Haggie, P. M., Verkman, A. S., 2001. Green fluorescent protein-based halide indicators with improved chloride and iodide affinities. FEBS Lett. 499, 220-224. doi:10.1016/S0014-5793(01)02561-3; Nagai, T., Ibata, K., Park, E. S., Kubota, M., Mikoshiba, K., Miyawaki, A., 2002. A variant of yellow fluorescent protein with fast and efficient maturation for cell-biological applications. Nat. Biotechnol. 20, 87-90. doi: 10.1038/nbt0102-87).
For this purpose, CFBE41o-cells were seeded in 384 well plates (3000 CFBE cells/well). One day after seeding, the CFBE cells were transduced with adenoviral vectors that direct the expression of the CFTR ΔF508 mutant and of the YFP reporter. Cells were incubated at 27° C., 5% CO2 for 24 hours so as to allow for the proper folding and migration to the membrane of the CFTR channel or treated with a CFTR modulator during 24 hours at 37° C.
(§1) The I-induced quenching of fluorescence was recorded on an immediately after injection of iodide for 2 minutes on an FDSS/μCell (Hamamatsu). The capacity of a compound to increase the channel opening was directly correlated with the decrease in fluorescence, and was expressed as (1−(fluorescence after 36 seconds (F)/fluorescence before injection (F0))) and an EC50 was derived from a (1−F/F0) vs compound concentration plot.

CFTR G551D mutant = molecular target: T2, CFTR G551D mutant (Homo sapiens, UniProt P13569, G551D); experiment: YFP-halide influx assay for the CFTR-G551D mutation (HEK293 cells); type: cell-based; details: forskolin 10.67 μM
T2 construct: expressed in transfected cells; host or cells: HEK293 cells, reverse transfection with plasmids
Text: The YFP halide influx assay measured the functionality of the cystic fibrosis Transmembrane Conductance regulator (CFTR) channels. The assay was used to evaluate the capacity of compounds to increase the channel opening of existing mutant CFTR channels in the membrane. It makes use of the observation that the yellow fluorescent protein (YFP) variant YFP H148Q, I152L, F47L has its fluorescence substantially quenched by halide ions like Cl^− and I^− (Galietta, L. J. V., Haggie, P. M., Verkman, A. S., 2001. Green fluorescent protein-based halide indicators with improved chloride and iodide affinities. FEBS Lett. 499, 220-224. doi:10.1016/S0014-5793(01)02561-3).
For this purpose, HEK293-cells were seeded in 96 well plates. During seeding, the cells were reverse-transfected with plasmid vectors that direct the expression of the CFTR G551D mutant and of the YFP reporter. Cells were incubated at 37° C., 5% CO2 for 24 hours so as to allow for sufficient expression of the CFTR protein.
as §1, with “I^−-induced” for “I-induced”, “recorded” for “recorded on an”, “I^−” for “iodide”, “7 seconds.” for “2 minutes on an FDSS/μCell (Hamamatsu).”, “7” for “36”

T1 sequence (P13569 with tags, fused parts or gaps DEL508-508): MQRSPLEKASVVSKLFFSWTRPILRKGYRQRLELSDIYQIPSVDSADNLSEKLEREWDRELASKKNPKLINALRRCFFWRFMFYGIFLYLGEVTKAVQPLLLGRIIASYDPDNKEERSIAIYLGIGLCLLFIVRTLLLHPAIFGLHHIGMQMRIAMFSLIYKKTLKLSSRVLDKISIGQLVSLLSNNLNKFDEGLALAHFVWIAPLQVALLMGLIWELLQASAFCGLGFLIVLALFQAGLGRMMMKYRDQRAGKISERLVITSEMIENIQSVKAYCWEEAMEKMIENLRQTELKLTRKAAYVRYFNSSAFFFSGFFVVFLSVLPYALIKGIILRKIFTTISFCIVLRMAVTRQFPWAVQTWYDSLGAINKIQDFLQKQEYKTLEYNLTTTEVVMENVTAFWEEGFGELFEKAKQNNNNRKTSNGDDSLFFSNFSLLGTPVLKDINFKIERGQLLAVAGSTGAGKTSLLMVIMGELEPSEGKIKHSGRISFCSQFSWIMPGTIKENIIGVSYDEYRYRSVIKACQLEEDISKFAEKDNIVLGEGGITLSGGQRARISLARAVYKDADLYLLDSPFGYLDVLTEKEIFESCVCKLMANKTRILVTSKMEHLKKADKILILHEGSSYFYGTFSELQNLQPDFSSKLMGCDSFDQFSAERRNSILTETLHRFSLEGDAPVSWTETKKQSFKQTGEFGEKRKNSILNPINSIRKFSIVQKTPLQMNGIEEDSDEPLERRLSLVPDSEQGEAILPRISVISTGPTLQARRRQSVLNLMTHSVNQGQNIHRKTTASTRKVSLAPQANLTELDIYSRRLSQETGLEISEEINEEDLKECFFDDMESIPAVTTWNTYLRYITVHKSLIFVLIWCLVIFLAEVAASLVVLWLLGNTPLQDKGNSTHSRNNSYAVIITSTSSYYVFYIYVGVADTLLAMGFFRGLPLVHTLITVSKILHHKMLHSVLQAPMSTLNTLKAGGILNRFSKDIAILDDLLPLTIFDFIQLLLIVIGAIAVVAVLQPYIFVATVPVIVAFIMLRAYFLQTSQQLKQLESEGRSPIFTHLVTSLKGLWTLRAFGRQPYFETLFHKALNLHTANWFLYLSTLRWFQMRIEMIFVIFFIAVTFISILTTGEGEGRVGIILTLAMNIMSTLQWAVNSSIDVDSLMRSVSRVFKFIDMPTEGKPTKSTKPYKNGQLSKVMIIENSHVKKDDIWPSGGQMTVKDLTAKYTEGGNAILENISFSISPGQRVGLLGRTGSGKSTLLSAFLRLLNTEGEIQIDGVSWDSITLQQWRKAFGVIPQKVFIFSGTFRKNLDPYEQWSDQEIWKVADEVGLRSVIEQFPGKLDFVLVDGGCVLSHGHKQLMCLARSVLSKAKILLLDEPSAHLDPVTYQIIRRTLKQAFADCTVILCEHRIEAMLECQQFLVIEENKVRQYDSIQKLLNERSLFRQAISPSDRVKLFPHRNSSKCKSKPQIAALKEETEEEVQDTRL
T2 sequence (P13569 whole entry G551D): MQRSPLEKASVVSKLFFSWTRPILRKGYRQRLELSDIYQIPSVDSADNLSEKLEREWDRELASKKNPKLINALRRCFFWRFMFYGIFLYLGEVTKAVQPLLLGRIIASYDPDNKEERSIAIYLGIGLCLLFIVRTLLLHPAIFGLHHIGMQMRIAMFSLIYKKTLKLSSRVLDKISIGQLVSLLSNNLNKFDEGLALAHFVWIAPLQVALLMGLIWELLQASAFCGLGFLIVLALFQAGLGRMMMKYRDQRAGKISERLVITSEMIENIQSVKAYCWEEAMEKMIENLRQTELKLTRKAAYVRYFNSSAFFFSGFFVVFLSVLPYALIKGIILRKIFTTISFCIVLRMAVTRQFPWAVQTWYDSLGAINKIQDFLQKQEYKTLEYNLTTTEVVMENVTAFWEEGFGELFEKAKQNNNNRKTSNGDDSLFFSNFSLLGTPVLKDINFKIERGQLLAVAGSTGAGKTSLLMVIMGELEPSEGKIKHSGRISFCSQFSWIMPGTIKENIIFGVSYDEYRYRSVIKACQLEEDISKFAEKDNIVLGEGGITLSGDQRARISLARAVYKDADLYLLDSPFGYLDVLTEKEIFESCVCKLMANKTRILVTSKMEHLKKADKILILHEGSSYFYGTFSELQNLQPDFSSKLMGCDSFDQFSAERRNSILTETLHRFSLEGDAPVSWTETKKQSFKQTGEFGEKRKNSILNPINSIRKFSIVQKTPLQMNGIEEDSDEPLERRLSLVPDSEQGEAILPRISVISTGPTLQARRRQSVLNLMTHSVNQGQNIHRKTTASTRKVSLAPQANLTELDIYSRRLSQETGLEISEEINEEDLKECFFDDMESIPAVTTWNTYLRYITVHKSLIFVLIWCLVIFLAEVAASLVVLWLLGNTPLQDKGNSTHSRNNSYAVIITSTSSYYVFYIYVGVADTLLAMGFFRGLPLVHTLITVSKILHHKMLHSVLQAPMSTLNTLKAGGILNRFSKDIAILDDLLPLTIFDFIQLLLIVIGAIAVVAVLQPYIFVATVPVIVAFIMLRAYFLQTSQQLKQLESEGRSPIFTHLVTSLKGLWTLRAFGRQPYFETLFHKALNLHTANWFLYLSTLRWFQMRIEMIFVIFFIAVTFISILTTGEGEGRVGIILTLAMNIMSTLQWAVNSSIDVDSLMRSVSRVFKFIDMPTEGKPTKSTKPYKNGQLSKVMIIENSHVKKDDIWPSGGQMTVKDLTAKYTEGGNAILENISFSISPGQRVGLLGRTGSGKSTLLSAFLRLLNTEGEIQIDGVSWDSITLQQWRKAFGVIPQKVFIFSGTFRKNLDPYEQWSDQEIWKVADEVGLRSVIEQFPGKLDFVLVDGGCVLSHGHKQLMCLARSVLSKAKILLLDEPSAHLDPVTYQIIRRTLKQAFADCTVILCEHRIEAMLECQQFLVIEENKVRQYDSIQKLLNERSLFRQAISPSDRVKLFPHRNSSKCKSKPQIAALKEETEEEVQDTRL

% Activation (CFTR ΔF508 mutant) | pEC50 (CFTR ΔF508 mutant) | % Activation (CFTR G551D mutant) | pEC50 (CFTR G551D mutant) | SMILES
98.3% | 8.20 | 90.4% | 5.92 | Nc1cc(S(=O)(=O)c2ccccc2OC(F)(F)F)cnc1C(=O)N[C@@H]1COCC[C@@H]1O (racemic) [Compound 83, rac-3-amino-N-[(3R,4S)-4-hydroxytetrahydro-2H-pyran-3-yl]-5-{[2-(trifluoromethoxy)phenyl]sulfonyl}pyridine-2-carboxamide]
98.6% | 7.33 | 47.8% | 5.94 | Nc1cc(S(=O)(=O)c2ccc(C(F)(F)F)cc2)cnc1C(=O)N[C@@H]1COCC[C@@H]1O (racemic) [Compound 216, rac-3-amino-N-[(3R,4S)-4-hydroxytetrahydro-2H-pyran-3-yl]-5-{[4-(trifluoromethyl)phenyl]sulfonyl}pyridine-2-carboxamide]
105.8% | 7.35 | 43.8% | 5.82 | Nc1cc(S(=O)(=O)c2ccc(C(F)(F)F)cc2F)cnc1C(=O)N[C@@H]1COCC[C@@H]1O (racemic) [Compound 218, rac-3-amino-5-{[2-fluoro-4-(trifluoromethyl)phenyl]sulfonyl}-N-[(3R,4S)-4-hydroxytetrahydro-2H-pyran-3-yl]pyridine-2-carboxamide]
37.1% | < 6.18 | 0.3% |  | C[C@H](O)CNC(=O)c1ncc(S(=O)(=O)N2CCCC2CO)cc1N (mixture of isomers) [Compound 268, 3-amino-5-{[2-(hydroxymethyl)pyrrolidin-1-yl]sulfonyl}-N-[(2S)-2-hydroxypropyl]pyridine-2-carboxamide]
92.1% | 6.69 | 43.6% | 5.24 | Nc1cc(S(=O)(=O)c2ccc(OC(F)(F)F)cc2)cnc1C(=O)N1CCC(O)C1 (centres unmarked) [Compound 4, (3-amino-5-{[4-(trifluoromethoxy)phenyl]sulfonyl}pyridin-2-yl)(3-hydroxypyrrolidin-1-yl)methanone]
14.8% | < 5.70 | 1.7% | < 5.00 | CN1CCC(O)(CNC(=O)c2ncc(S(=O)(=O)c3ccc(OC(F)(F)F)cc3)cc2N)CC1 [Compound 5, 3-amino-N-[(4-hydroxy-1-methylpiperidin-4-yl)methyl]-5-{[4-(trifluoromethoxy)phenyl]sulfonyl}pyridine-2-carboxamide]
109.5% | 7.14 | 67.5% | 5.92 | Nc1cc(S(=O)(=O)c2ccc(OC(F)(F)F)cc2)cnc1C(=O)NCC1COCCO1 (centres unmarked) [Compound 8, 3-amino-N-(1,4-dioxan-2-ylmethyl)-5-{[4-(trifluoromethoxy)phenyl]sulfonyl}pyridine-2-carboxamide]
97.5% | 6.79 | 59.5% | < 5.48 | Nc1cc(S(=O)(=O)c2ccc(OC(F)(F)F)cc2)cnc1C(=O)NCCN1CCOCC1 [Compound 9, 3-amino-N-[2-(morpholin-4-yl)ethyl]-5-{[4-(trifluoromethoxy)phenyl]sulfonyl}pyridine-2-carboxamide]
101.0% | 6.74 |  |  | Cc1ccc(C(CO)NC(=O)c2ncc(S(=O)(=O)c3ccc(OC(F)(F)F)cc3)cc2N)cc1 (centres unmarked) [Compound 41, 3-amino-N-[2-hydroxy-1-(4-methylphenyl)ethyl]-5-{[4-(trifluoromethoxy)phenyl]sulfonyl}pyridine-2-carboxamide]
92.6% | 6.63 |  |  | CCNC(=O)C(C)NC(=O)c1ncc(S(=O)(=O)c2ccc(OC(F)(F)F)cc2)cc1N (centres unmarked) [Compound 43, 3-amino-N-[1-(ethylamino)-1-oxopropan-2-yl]-5-{[4-(trifluoromethoxy)phenyl]sulfonyl}pyridine-2-carboxamide]
73.9% | 6.49 |  |  | Nc1cc(S(=O)(=O)c2ccc(OC(F)(F)F)cc2)cnc1C(=O)NC(CO)CO [Compound 44, 3-amino-N-(1,3-dihydroxypropan-2-yl)-5-{[4-(trifluoromethoxy)phenyl]sulfonyl}pyridine-2-carboxamide]
93.6% | 7.08 |  |  | Nc1cc(S(=O)(=O)c2ccc(OC(F)(F)F)cc2)cnc1C(=O)NCCCCO [Compound 45, 3-amino-N-(4-hydroxybutyl)-5-{[4-(trifluoromethoxy)phenyl]sulfonyl}pyridine-2-carboxamide]
84.8% | 6.30 |  |  | CNC(=O)[C@@H](NC(=O)c1ncc(S(=O)(=O)c2ccc(OC(F)(F)F)cc2)cc1N)C(C)(C)C [Compound 47, 3-amino-N-[(2S)-3,3-dimethyl-1-(methylamino)-1-oxobutan-2-yl]-5-{[4-(trifluoromethoxy)phenyl]sulfonyl}pyridine-2-carboxamide]
103.0% | 7.68 |  |  | CCNC(=O)CNC(=O)c1ncc(S(=O)(=O)c2ccc(OC(F)(F)F)cc2)cc1N [Compound 48, 3-amino-N-[2-(ethylamino)-2-oxoethyl]-5-{[4-(trifluoromethoxy)phenyl]sulfonyl}pyridine-2-carboxamide]
132.0% | 6.90 |  |  | CC(C)[C@H](NC(=O)c1ncc(S(=O)(=O)c2ccc(OC(F)(F)F)cc2)cc1N)C(N)=O [Compound 49, 3-amino-N-[(2S)-1-amino-3-methyl-1-oxobutan-2-yl]-5-{[4-(trifluoromethoxy)phenyl]sulfonyl}pyridine-2-carboxamide]
37.6% | < 5.70 |  |  | CC(CC(N)=O)NC(=O)c1ncc(S(=O)(=O)c2ccc(OC(F)(F)F)cc2)cc1N (centres unmarked) [Compound 55, 3-amino-N-(4-amino-4-oxobutan-2-yl)-5-{[4-(trifluoromethoxy)phenyl]sulfonyl}pyridine-2-carboxamide]
99.4% | 6.43 |  |  | CC(C)C[C@H](NC(=O)c1ncc(S(=O)(=O)c2ccc(OC(F)(F)F)cc2)cc1N)C(N)=O [Compound 56, N^2-[(3-amino-5-{[4-(trifluoromethoxy)phenyl]sulfonyl}pyridin-2-yl)carbonyl]-L-leucinamide]
96.5% | 7.02 |  |  | CC[C@H](NC(=O)c1ncc(S(=O)(=O)c2ccc(OC(F)(F)F)cc2)cc1N)C(N)=O [Compound 93, 3-amino-N-[(2S)-1-amino-1-oxobutan-2-yl]-5-{[4-(trifluoromethoxy)phenyl]sulfonyl}pyridine-2-carboxamide]
105.0% | 6.61 |  |  | COc1ccc(C(CO)NC(=O)c2ncc(S(=O)(=O)c3ccc(OC(F)(F)F)cc3)cc2N)cc1 (centres unmarked) [Compound 96, 3-amino-N-[2-hydroxy-1-(4-methoxyphenyl)ethyl]-5-{[4-(trifluoromethoxy)phenyl]sulfonyl}pyridine-2-carboxamide]
26.7% | < 5.70 |  |  | Nc1cc(S(=O)(=O)c2ccc(OC(F)(F)F)cc2)cnc1C(=O)NC1(C(F)(F)F)CCOCC1 [Compound 193, 3-amino-5-{[4-(trifluoromethoxy)phenyl]sulfonyl}-N-[4-(trifluoromethyl)tetrahydro-2H-pyran-4-yl]pyridine-2-carboxamide]
85.2% | 7.37 |  |  | Nc1cc(S(=O)(=O)c2ccccc2)c(C2CC2)nc1C(=O)NCCO [Compound 260, 3-amino-6-cyclopropyl-N-(2-hydroxyethyl)-5-(phenylsulfonyl)pyridine-2-carboxamide]
82.1% | 7.40 |  |  | COC[C@H](O)CNC(=O)c1ncc(S(=O)(=O)c2ccccc2)cc1N [Compound 296, 3-amino-N-[(2R)-2-hydroxy-3-methoxypropyl]-5-(phenylsulfonyl)pyridine-2-carboxamide]
